Measurements taken from patent publication US10316017B2, “COT modulators and methods of use thereof” (Gilead Sciences, Inc., priority 2015, dated 2019).
pIC50: −log10 of the molar value.

Target: T1, human Cot catalytic domain (30-397 amino acids) (Homo sapiens, UniProt P41279)
T1 construct: Purified recombinant human Cot catalytic domain (30-397 amino acids) was purchased from Cama Biosciences; purchased Cama Biosciences (so in the source)
Assay: High Throughput Cot Biochemical Assay (KinEASE TR-FRET)
Conditions: Cot KinEASE TR-FRET, 400 μM ATP; read-out: IC50 HTRF
Protocol: Example 61: High Throughput Cot Biochemical Assay
In this assay, Cot-catalyzes the phosphorylation of a XL665-labeled peptide substrate. Europium conjugated phospho-tyrosine specific antibody binds the resulting phosphorylated peptide. […] Purified recombinant human Cot catalytic domain (30-397 amino acids) was purchased from Cama Biosciences. […] The standard 5 μL reaction mixture contained 400 μM ATP, 1 μM STK3 peptide, 5 nM of Cot in reaction buffer (10 mM MOPS, pH 7.0, 0.02% NaN3, 0.5 mg/mL BSA, 10 mM MgOAc, 1 mM DTT, 0.025% NP-40, 1.5% glycerol) and 0.1% DMSO.

T1 sequence (P41279 30-397): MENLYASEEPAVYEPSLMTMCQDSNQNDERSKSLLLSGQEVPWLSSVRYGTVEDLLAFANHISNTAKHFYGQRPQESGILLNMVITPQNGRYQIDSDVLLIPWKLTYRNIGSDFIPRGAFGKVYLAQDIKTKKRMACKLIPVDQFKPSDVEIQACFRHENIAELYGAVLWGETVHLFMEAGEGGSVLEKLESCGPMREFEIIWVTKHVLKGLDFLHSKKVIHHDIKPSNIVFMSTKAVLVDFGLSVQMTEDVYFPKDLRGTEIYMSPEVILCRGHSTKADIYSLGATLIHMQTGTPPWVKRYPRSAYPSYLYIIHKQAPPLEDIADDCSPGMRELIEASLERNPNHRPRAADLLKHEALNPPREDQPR

| pIC50 | Structure (SMILES) |
| --- | --- |
| 8.05 | CCN1CCC(n2cc(C(Nc3ccc4ncc(C#N)c(Nc5ccc(F)c(Cl)c5)c4c3)c3ccc(F)cc3)nn2)CC1 (stereo not drawn) [Example 832, 4-((3-chloro-4-fluorophenyl)amino)-6-(((1-(1-ethylpiperidin-4-yl)-1H-1,2,3-triazol-4-yl)(4-fluorophenyl)methyl)amino) quinoline-3-carbonitrile] |
| 8.15 | CCN1CCC(n2cc(C(Nc3cc(Br)c4ncc(C#N)c(Nc5ccc(F)c(Cl)c5)c4c3)c3ccc(F)cc3)nn2)CC1 (stereo not drawn) [Example 833, 8-bromo-4-((3-chloro-4-fluorophenyl)amino)-6-(((1-(1-ethylpiperidin-4-yl)-1H-1,2,3-triazol-4-yl)(4-fluorophenyl)methyl)amino) quinoline-3-carbonitrile] |
| 6.12 | N#Cc1cnc2ccc(NC(c3ccc(F)cc3)c3cn(C4CCN(C(=O)OCc5ccccc5)CC4)nn3)cc2c1Nc1ccc(F)c(Cl)c1 (stereo not drawn) [Example 834, benzyl 4-(4-(((4-((3-chloro-4-fluorophenyl)amino)-3-cyanoquinolin-6-yl)amino)(4-fluorophenyl)methyl)-1H-1,2,3-triazol-1-yl)piperidine-1-carboxylate] |
| 7.49 | CCN1CCC(n2cc(C(Nc3cc(Cl)c4ncc(C#N)c(Nc5ccc(F)c(Cl)c5)c4c3)c3ccc(F)cc3)nn2)CC1(C)C (stereo not drawn) [Example 838, 8-chloro-4-((3-chloro-4-fluorophenyl)amino)-6-(((1-(1-ethyl-2,2-dimethylpiperidin-4-yl)-1H-1,2,3-triazol-4-yl)(4-fluorophenyl)methyl)amino) quinoline-3-carbonitrile] |
| 7.62 | CC1(C)CC(n2cc(C(Nc3cc(Cl)c4ncc(C#N)c(Nc5ccc(F)c(Cl)c5)c4c3)c3ccc(F)cc3)nn2)CCN1 (stereo not drawn) [Example 839, 8-chloro-4-((3-chloro-4-fluorophenyl)amino)-6-(((1-(2,2-dimethylpiperidin-4-yl)-1H-1,2,3-triazol-4-yl)(4-fluorophenyl)methyl)amino) quinoline-3-carbonitrile] |
| 7.08 | CC1(C)CNCCC1n1cc(C(Nc2cc(Cl)c3ncc(C#N)c(Nc4ccc(F)c(Cl)c4)c3c2)c2ccc(F)cc2)nn1 (stereo not drawn) [Example 840, 8-chloro-4-((3-chloro-4-fluorophenyl)amino)-6-(((1-(3,3-dimethylpiperidin-4-yl)-1H-1,2,3-triazol-4-yl)(4-fluorophenyl)methyl)amino) quinoline-3-carbonitrile] |
| 7.24 | N#Cc1cnc2c(Cl)cc(NC(c3ccc(F)cc3)c3cn(C4CCOCC4)nn3)cc2c1Nc1ccc(F)c(Cl)c1 (stereo not drawn) [Example 843, 8-chloro-4-((3-chloro-4-fluorophenyl)amino)-6-(((4-fluorophenyl)(1-(tetrahydro-2H-pyran-4-yl)-1H-1,2,3-triazol-4-yl)methyl)amino)quinoline-3-carbonitrile] |
| 7.32 | CC(=O)N1CCC(n2cc(C(Nc3cc(Cl)c4ncc(C#N)c(Nc5ccc(F)c(Cl)c5)c4c3)c3ccc(F)cc3)nn2)CC1 (stereo not drawn) [Example 844, 6-(((1-(1-acetylpiperidin-4-yl)-1H-1,2,3-triazol-4-yl)(4-fluorophenyl)methyl)amino)-8-chloro-4-((3-chloro-4-fluorophenyl)amino)quinoline-3-carbonitrile] |
| 7.00 | CS(=O)(=O)N1CCC(n2cc(C(Nc3cc(Cl)c4ncc(C#N)c(Nc5ccc(F)c(Cl)c5)c4c3)c3ccc(F)cc3)nn2)CC1 (stereo not drawn) [Example 845, 8-chloro-4-((3-chloro-4-fluorophenyl)amino)-6-(((4-fluorophenyl)(1-(1-(methylsulfonyl)piperidin-4-yl)-1H-1,2,3-triazol-4-yl)methyl)amino)quinoline-3-carbonitrile] |
| < 5.00 | Cn1ccc(C(Nc2cc(Cl)c3ncc(C#N)c(Nc4ccc(F)c(Cl)c4)c3c2)c2ccc(F)cc2)n1 (stereo not drawn) [Example 846, 8-chloro-4-((3-chloro-4-fluorophenyl)amino)-6-(((4-fluorophenyl)(1-methy-1-1H-pyrazol-3-yl)methyl)amino)quinoline-3-carbonitrile] |
| 6.03 | N#Cc1cnc2c(Cl)cc(N[C@H](c3ccc(F)cc3)c3cn(C4CCNCC4)nn3)cc2c1Nc1ccc(F)c(Cl)c1 [Example 850, (R)-8-chloro-4-((3-chloro-4-fluorophenyl)amino)-6-(((4-fluorophenyl)(1-(piperidin-4-yl)-1H-1,2,3-triazol-4-yl)methyl)amino)quinoline-3-carbonitrile] |
| 8.15 | N#Cc1cnc2c(Cl)cc(N[C@@H](c3ccc(F)cc3)c3cn(C4CCNCC4)nn3)cc2c1Nc1ccc(F)c(Cl)c1 [Example 851, (S)-8-chloro-4-((3-chloro-4-fluorophenyl)amino)-6-(((4-fluorophenyl)(1-(piperidin-4-yl)-1H-1,2,3-triazol-4-yl)methyl)amino)quinoline-3-carbonitrile] |
| 7.66 | Cn1cc(C(Nc2cc(Cl)c3ncc(C#N)c(Nc4ccc(F)c(Cl)c4)c3c2)c2cccc(CN3CCCC3)c2)nn1 (stereo not drawn) [Example 852, 8-chloro-4-((3-chloro-4-fluorophenyl)amino)-6-(((1-methyl-1H-1,2,3-triazol-4-yl)(3-(pyrrolidin-1-ylmethyl)phenyl)methyl)amino)quinoline-3-carbonitrile] |
| 5.62 | N#Cc1cnc2c(Cl)cc(NC(c3ccc(F)cc3)c3cn(C4CCN(C(=O)OCc5ccccc5)CC4)nn3)cc2c1Nc1ccc(F)c(Cl)c1 (stereo not drawn) [Example 855, benzyl 4-(4-(((8-chloro-4-((3-chloro-4-fluorophenyl)amino)-3-cyanoquinolin-6-yl)amino)(4-fluorophenyl)methyl)-1H-1,2,3-triazol-1-yl)piperidine-1-carboxylate] |
| 6.07 | CCN1CCC(n2cc([C@H](Nc3cc(Cl)c4ncc(C#N)c(Nc5ccc(F)c(Cl)c5)c4c3)c3ccc(Cl)cc3)nn2)CC1 [Example 856, (R)-8-chloro-4-((3-chloro-4-fluorophenyl)amino)-6-(((4-chlorophenyl)(1-(1-ethylpiperidin-4-yl)-1H-1,2,3-triazol-4-yl)methyl)amino)quinoline-3-carbonitrile] |
| 5.87 | N#Cc1cnc2c(Cl)cc(N[C@H](c3ccc(Cl)cc3)c3cn(C4CCNCC4)nn3)cc2c1Nc1ccc(F)c(Cl)c1 [Example 857, (R)-8-chloro-4-((3-chloro-4-fluorophenyl)amino)-6-(((4-chlorophenyl)(1-(piperidin-4-yl)-1H-1,2,3-triazol-4-yl)methyl)amino)quinoline-3-carbonitrile] |
| 5.40 | N#Cc1cnc2c(Cl)cc(NC(c3ccc(F)cc3)c3cccnc3)cc2c1Nc1ccc(F)c(Cl)c1 (stereo not drawn) [Example 862, 8-chloro-4-((3-chloro-4-fluorophenyl)amino)-6-(((4-fluorophenyl)(pyridin-3-yl)methyl)amino)quinoline-3-carbonitrile] |
| 7.66 | N#Cc1cnc2c(Cl)cc(NC(c3ccc(F)cc3)c3cn([C@@H]4CCNC4)nn3)cc2c1Nc1ccc(F)c(Cl)c1 (stereo partly drawn) [Example 864, 8-chloro-4-((3-chloro-4-fluorophenyl)amino)-6-(((4-fluorophenyl)(1-((R)-pyrrolidin-3-yl)-1H-1,2,3-triazol-4-yl)methyl)amino)quinoline-3-carbonitrile] |
| 7.34 | CCN1CC[C@@H](n2cc(C(Nc3cc(Cl)c4ncc(C#N)c(Nc5ccc(F)c(Cl)c5)c4c3)c3ccc(F)cc3)nn2)C1 (stereo partly drawn) [Example 865, 8-chloro-4-((3-chloro-4-fluorophenyl)amino)-6-(((1-((R)-1-ethylpyrrolidin-3-yl)-1H-1,2,3-triazol-4-yl)(4-fluorophenyl)methyl)amino) quinoline-3-carbonitrile] |
| 5.68 | N#Cc1cnc2c(Cl)cc(NC(c3ccc(Cl)cc3)c3cn([C@@H]4CCN(C(=O)OCc5ccccc5)C4)nn3)cc2c1Nc1ccc(F)c(Cl)c1 (stereo partly drawn) [Example 866, benzyl (3R)-3-(4-(((8-chloro-4-((3-chloro-4-fluorophenyl)amino)-3-cyanoquinolin-6-yl)amino)(4-chlorophenyl)methyl)-1H-1,2,3-triazol-1-yl)pyrrolidine-1-carboxylate] |
| 7.34 | N#Cc1cnc2c(Cl)cc(NC(c3ccc(Cl)cc3)c3cn([C@@H]4CCNC4)nn3)cc2c1Nc1ccc(F)c(Cl)c1 (stereo partly drawn) [Example 867, 8-chloro-4-((3-chloro-4-fluorophenyl)amino)-6-(((4-chlorophenyl)(1-((R)-pyrrolidin-3-yl)-1H-1,2,3-triazol-4-yl)methyl)amino)quinoline-3-carbonitrile] |
| 6.92 | CCN1CC[C@@H](n2cc(C(Nc3cc(Cl)c4ncc(C#N)c(Nc5ccc(F)c(Cl)c5)c4c3)c3ccc(Cl)cc3)nn2)C1 (stereo partly drawn) [Example 868, 8-chloro-4-((3-chloro-4-fluorophenyl)amino)-6-(((4-chlorophenyl)(1-((R)-1-ethylpyrrolidin-3-yl)-1H-1,2,3-triazol-4-yl)methyl)amino)quinoline-3-carbonitrile] |
| 7.57 | CCN1CC(n2cc(C(Nc3cc(Cl)c4ncc(C#N)c(Nc5ccc(F)c(Cl)c5)c4c3)c3ccc(F)cc3)nn2)C1 (stereo not drawn) [Example 870, 8-chloro-4-((3-chloro-4-fluorophenyl)amino)-6-(((1-(1-ethylazetidin-3-yl)-1H-1,2,3-triazol-4-yl)(4-fluorophenyl)methyl)amino) quinoline-3-carbonitrile] |
| 7.05 | CCN1CC(n2cc(C(Nc3cc(Cl)c4ncc(C#N)c(Nc5ccc(F)c(Cl)c5)c4c3)c3ccc(Cl)cc3)nn2)C1 (stereo not drawn) [Example 871, 8-chloro-4-((3-chloro-4-fluorophenyl)amino)-6-(((4-chlorophenyl)(1-(1-ethylazetidin-3-yl)-1H-1,2,3-triazol-4-yl)methyl)amino)quinoline-3-carbonitrile] |
